From US20130109581A1, “POSITIVELY CHARGED SPECIES AS BINDING REAGENTS IN THE SEPARATION OF PROTEIN AGGREGATES FROM MONOMERS” (priority 2009, published 2013) come the findings set out here.

Several values for one entry are separate records, joined by “and”; a condition that tells them apart may be missing. Equal entries are not always repeated.

In test [1] the target is T1, E22G globulomer (beta amyloid 1-42, Arctic mutation) (Homo sapiens, UniProt P05067, E693G).
T1 construct: Three beta amyloid 1-42 peptides were generated to test the role of E22; purchased Anaspec
Briefly: NMPA capture of E22G globulomer. To be noted: neutrally charged mutant; FIG. 8. In kind it is binding. The text has this: (§1) Three beta amyloid 1-42 peptides were generated to test the role of E22: a wild-type peptide, a mutant peptide containing Arctic mutation E22G with a neutral charge, and a mutant peptide containing Italian mutation E22K with a positive charge. Synthetic peptides were commercially available from Anaspec.
(§2) Mutant peptides were oligomerized according to the methods described in Example 3.
NMPA was used to evaluate the ability of PSR1 to capture the E22G globulomer. The methods used are described in Example 2.

Test [2] has as its target T2, E22K globulomer (beta amyloid 1-42, Italian mutation) (Homo sapiens, UniProt P05067, E693K).
T2 construct: Three beta amyloid 1-42 peptides were generated to test the role of E22; purchased Anaspec
Briefly: NMPA capture of E22K globulomer. In kind it is binding. To be noted: positively charged mutant; FIG. 10.
From the text: as §1, §2

For a further test, the target named is T3, Abeta 1-42 globulomer (Homo sapiens, UniProt P05067).
T3 construct: beta amyloid (1-42) was monomerized with incubation in hexafluoroisopropanol
In words: Globulomer capture assay in CSF (Example 6). The class given is binding.

The target in another test is Aβ42 ADDL (Homo sapiens, UniProt P05067). Briefly: Misfolded Protein Assay, LoD and capture in CSF: ADDL. To be noted: for LoD: spiked into CSF. In kind it is binding. On the procedure:
(§3) The Ab42 aggregates were prepared as previously described: fibrils were prepared per Stine et al (JBC 2003, 278, p11612), globulomers were prepared per Barghorn et al (J Neurology 2005 95 p834), ADDLs were prepared per Lambert et al (PNAS 1998, 95 p6448), and ASPDs were prepared per Noguchi et al (JBC 2009 284 p32895). Normal CSF was pooled from clinically characterized non-demented patient CSF samples. AD CSF was pooled from clinically-characterized AD patient samples. Alzheimer's Disease Brain Homogenate (ADBH) was prepared by sonication of clinically diagnosed AD patient brain samples in 0.2M.sucrose (1:10 w/v).
(§4) For the capture assay (Misfolded Protein Assay), aliquots of the beads (30 ul) were added to wells of a 96 well plate, followed by 125 ul of sample in 80:20 CSF:TBSTT. The plate was sealed and incubated for 1 h at 37 C with shaking. The plate was washed with TBST and the residual buffer removed. A denaturing solution (0.1 N NaOH) was added to each well and the plate heated to 80 C. for 30 min with shaking. After cooling the plate to RT, a neutralizing buffer (0.12 M NaH2PO3-0.4% TW20,) was added and the plate shaken briefly at RT. The assay was analyzed using the triplex Mesoscale Discovery ELISA kit for Aβ. The Aβ in the samples eluted from the beads were detected per the manufacturer's protocol.
(§5) For the Limit of Detection (LoD) studies, serial dilutions of each aggregate were spiked into CSF and were assayed per the protocol described above. The LoD was defined as 2× over background levels.
(§6) This pattern minors the capture selectivity observed when these species are tested with 3 ul of PSR1 beads and 1 ng/mL of aggregate.

The target of the next test is T4, Aβ42 ASPD (Homo sapiens, UniProt P05067).
T4 construct: The Ab42 aggregates were prepared as previously described
Briefly: Misfolded Protein Assay, LoD and capture in CSF: ASPD. The class given is binding. To be noted: for LoD: spiked into CSF. How it is done: as §3, §4, §5, §6

For the next test, the system named is 263K prion infectivity. Set-up: species or system Tg(SHaPrP) mice. To be noted: mouse, in vivo.
The next test deals with PrP^Sc (Mesocricetus auratus, UniProt P04273).
Another test has as its target prion protein (Homo sapiens, UniProt P04156).
For test [3], the target named is T5, oligomeric beta amyloid 1-42 (globulomer) (Homo sapiens, UniProt P05067).
T5 construct: beta amyloid (1-42) was monomerized with incubation in hexafluoroisopropanol
In words: Misfolded Protein Assay: capture of globulomer spiked into CSF (Example 2). In kind it is binding. To be noted: conjugated to cellulose membrane; loading approximately 100× higher than on beads.

The mark [4] stands for this setting: 3 ul of beads and 1 ng/mL of aggregate.

PrP^Sc, sequence (P04273 23-231 limits assumed): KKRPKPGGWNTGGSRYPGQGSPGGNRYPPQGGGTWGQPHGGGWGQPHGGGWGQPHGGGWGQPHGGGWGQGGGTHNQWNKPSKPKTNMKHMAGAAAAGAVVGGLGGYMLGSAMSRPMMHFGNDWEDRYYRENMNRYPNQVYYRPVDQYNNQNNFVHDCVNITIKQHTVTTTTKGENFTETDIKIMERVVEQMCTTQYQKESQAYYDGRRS

As to Nab-Nab-Nab-Nbn-Nab-Nbn [PSR1], in [1], the “capture of E22G globulomer” value was “not captured”. In addition, in [2], the “capture of E22K globulomer” value is on record as “captured efficiently”. The “42:40 (signal:noise ratio)” value at Abeta 1-42 globulomer (1 ng/ml average reading, ratio of 42 to 40) is 4.1. The “42, 1 ng/ml average reading” value at Abeta 1-42 globulomer (Abeta 1-42 globulomer spiked at 1 ng/mL into CSF) is 970.5 RLUs. For the same substance, on Aβ42 ADDL (setting [4]), the “capture of ADDL” value was 1219. At Aβ42 ADDL, this substance came in with a LoD of roughly 20 amol. Moreover, the LoD on Aβ42 ADDL (LoD = 2× over background) was ~200 pg/mL and 200 pg/mL. Besides, the “capture of ASPD” value on Aβ42 ASPD (setting [4]) came out at 1096. Also, at Aβ42 ASPD, the LoD is on record as roughly 20 amol. On Aβ42 ASPD (LoD = 2× over background), the LoD is ~200 pg/mL and 200 pg/mL. Also, in the test on 263K prion infectivity, the “125 μl pooled plasma corresponds to 30 μl of a dilution of 263 K hamster brain homogenate” value is 10^−8 dilution of 263 K and 10^−7 dilution of 263 K; the “Attack rate (Clinical TSE/total inoculated)” value is 100% (8/8) and 50% (2/4) and 100% (4/4) and 81% (13/16); the “Mean incubation period (days)” value is 74 ± 3 dpi and 76 ± 5 dpi and 94 ± 5 dpi; the “capture and transmission of prion infectivity” value is “capture prion infectivity from prion-infected blood samples and transmit it with high efficiency to Tg(SHaPrP) mice”. In the test on 263K prion infectivity, the “incubation period (days)” value is on record as 56, 85 days and the mean incubation times is 74-94 days post inoculation. In addition, at PrP^Sc, the “PrP^Sc capture signal” value was “Signal was observed with the 100 or 300 ng/mL spike levels”. Moreover, the “distinguishing control and vCJD brain homogenates, prion protein detected” value at prion protein was “clearly distinguished between control and either vCJD or AD samples”. Also, in test [3], the “ability to bind preferentially to oligomers in solution” value is reported as “continued to increase the ability of PSR1 to bind preferentially to oligomers in solution”.
